Assays:
[1] = test system: TopBP1-proximal proteins (Psf3, Psf2); experiment: APEX2 proximity biotinylation, streptavidin pulldown and mass spectrometry; type: cell-based, human; settings: three proximity biotinylation experiments; + H2O2 vs - H2O2; four biological replicates
Description: Proximity labelling was performed in isogenic stable 293 Flip-In (Thermo Fisher; R75007) cells stably expressing TopBP1 N-terminal tagged with APEX2 or in 293T cells transiently expressing either N-terminal or C-terminally APEX2-tagged TopBP1. 24 h before transfection, 0.8 × 10^6 cells were seeded onto a 6-cm plate. For each condition, four dishes were separately transfected (biological replicates). One day after transfection, cells were incubated for 30 min with 500 µM biotin phenol at 37 °C, before incubation for 1 min at RT with or without (controls) 1 mM H2O2. The medium was discarded, and cells were washed three times with quenching buffer (10 mM sodium azide, 10 mM sodium ascorbate and 5 mM Trolox in Dulbecco’s PBS (Life Technologies 14190169). Cells were rinsed off the dishes with DPBS, transferred into reaction tubes before washing again with DPBS. Cells were lysed at 95 °C for 10 min in TSD buffer (50 mM Tris pH 7.5, 5 mM DTT and 1% SDS). Samples were diluted ten times with TNN buffer (20 mM Tris pH 7.9, 200 mM NaCl and 0.5% NP-40 alternative) and benzonase (75 U per sample) (Sigma E1014). Samples were incubated for 15 min at 4 °C and centrifuged at 21,000 × g for 2 min at 4 °C. Supernatants were incubated over night with 15 µl streptavidin sepharose beads (Sigma GE17-5113-01) at 4 °C. […]

Sld5 = experiment: Myc immunoprecipitation from transfected 293T cells, Sld5 co-IP; type: binding; settings: transiently transfected 293T cell lysates, anti-Myc
Description: Transient transfections of 6xMyc-Tev2-TopBP1 into 293T cells (ATCC CRL-11268) were carried out using PEI (polyethyleneimine) according to a protocol kindly shared by David Cortez’ lab. 4 µg plasmid DNA in 100 µl DMEM (Thermofisher, 41965039) without penicillin-streptomycin were combined with 2.4 µl Polyethylenimin (Sigma, 408727; 10 mg/ml) and incubated for 20 min before addition to 4 × 10^6 cells on a 10-cm dish. Transfected cells were used 72 h post transfection. 72 h post transfection, 293T cells were lysed by douncing in ten times cell pellet volume of lysis buffer (20 mM HEPES pH 8.0, 150 mM NaCl, 0.1% (v/v) Tween-20, 0.5 mM TCEP, 2% (v/v) glycerol, protease inhibitor cocktail (Roche, Complete protease inhibitor cocktail, 05056489001)), and centrifuged at 20,000 × g for 15 min at 4 °C. The soluble supernatant was added to magnetic anti-Myc beads (5 µl slurry per sample; Thermofischer, 88842) and incubated for 2 h at 4 °C rotating. Cells equivalent to 50% of a 15 cm dish were used per sample. Beads were washed three times in lysis buffer with 5 min incubation each, and finally boiled in 50 µl Laemmli loading buffer (6.5% glycerol, 715 mM β-mercaptoethanol, 3% SDS, 62.5 mM Tris-HCl pH 7.9, 0.005% bromphenol blue).
Non-APEX2-bio=nylated samples (-H2O2) were used as controls. […] Immunoprecipitated TopBP1 was detected using Ponceau (Ponc.) staining. […]

| Molecule | enrichment of Psf3 upon streptavidin pulldown [1] | Sld5 co-immunoprecipitation (Sld5) |
| --- | --- | --- |
| APEX2-tagged TopBP1: N- or C-terminally APEX2-tagged TopBP1 | specific enrichment of Psf3 |  |
| TopBP1-BRCT0-5: 6Myc-TEV2-tagged TopBP1-BRCT0-5 expressed in 293T cells (protein, left off: Strep, C-terminal, kept, 6Myc-TEV2-tagged TopBP1-BRCT0-5 expressed in 293T cells) MSRNDKEPFFVKFLKSSDNSKCFFKALESIKEFQSEEYLQIITEEEALKIKENDRSLYICDPFSGVVFDHLKKLGCRIVGPQVVIFCMHHQRCVPRAEHPVYNMVMSDVTISCTSLEKEKREEVHKYVQMMGGRVYRDLNVSVTHLIAGEVGSKKYLVAANLKKPILLPSWIKTLWEKSQEKKITRYTDINMEDFKCPIFLGCIICVTGLCGLDRKEVQQLTVKHGGQYMGQLKMNECTHLIVQEPKGQKYECAKRWNVHCVTTQWFFDSIEKGFCQDESIYKTEPRPEAKTMPNSSTPTSQINTIDSRTLSDVSNISNINASCVSESICNSLNSKLEPTLENLENLDVSAFQAPEDLLDGCRIYLCGFSGRKLDKLRRLINSGGGVRFNQLNEDVTHVIVGDYDDELKQFWNKSAHRPHVVGAKWLLECFSKGYMLSEEPYIHANYQPVEIPVSHKPESKAALLKKKNSSFSKKDFAPSEKHEQADEDLLSQYENGSSTVVEAKTSEARPFNDSTHAEPLNDSTHISLQEENQSSVSHCVPDVSTITEEGLFSQKSFLVLGFSNENESNIANIIKENAGKIMSLLSRTVADYAVVPLLGCEVEATVGEVVTNTWLVTCIDYQTLFDPKSNPLFTPVPVMTGMTPLEDCVISFSQCAGAEKESLTFLANLLGASVQEYFVRKSNAKKGMFASTHLILKERGGSKYEAAKKWNLPAVTIAWLLETARTGKRADESHFLIENSTKEERSLETEITNGINLNSDTAEHP |  | weak but specific signal |

From publication PMC10899662, “TopBP1 utilises a bipartite GINS binding mode to support genome replication” (Nature Communications, 2024)
